The record followed here is patent publication US12466831B2, “Substituted amino triazolopyrimidine and amino triazolopyrazine adenosine receptor antagonists, pharmaceutical compositions and their use” (Merck Sharp & Dohme LLC, priority 2018, dated 2025).

For test [1], the target named is T1, human A2b adenosine receptor (Homo sapiens, UniProt P29275).
T1 construct: purchased Perkin Elmer ES-013-C; host or cells: HEK293 cells recombinantly expressing the receptor; membranes made from them
T1 sequence (P29275 1-332): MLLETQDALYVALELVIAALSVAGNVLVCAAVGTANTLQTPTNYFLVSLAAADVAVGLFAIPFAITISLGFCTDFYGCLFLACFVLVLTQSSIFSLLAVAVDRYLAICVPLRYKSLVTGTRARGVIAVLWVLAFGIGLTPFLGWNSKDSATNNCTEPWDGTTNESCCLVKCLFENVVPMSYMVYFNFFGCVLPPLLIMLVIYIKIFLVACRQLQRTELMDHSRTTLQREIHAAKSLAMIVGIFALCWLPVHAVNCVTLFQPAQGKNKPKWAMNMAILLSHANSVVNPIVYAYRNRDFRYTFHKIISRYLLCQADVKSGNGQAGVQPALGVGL
The test is described as follows: A2b binding affinity, radioligand filtration binding assay. Conditions: tritiated proprietary A2b antagonist, HEK293 membranes expressing human A2b. The source says: (§1) Method (A) describes the procedure used to measure A2a binding affinity using radioligand binding. Method (B) describes the procedure used to measure A2a binding affinity using SPA technology. The method used to measure A2b binding affinity is also described below. The method used to determine the A2a IC50 value reported for each compound in the table is indicated next to the reported value. The A2b IC50 value measured using the A2b binding affinity assay is shown in the table next to the compound under the corresponding A2a value.
Measurement of A2b Binding Affinity
The reported affinity of the compounds of the invention for the human A2b adenosine receptor was determined experimentally using a radioligand filtration binding assay. This assay measures the amount of binding of a tritiated proprietary A2b receptor antagonist, in the presence and absence of a compound of the invention, to membranes made from HEK293 cells recombinantly expressing the human A2b adenosine receptor (Perkin Elmer, Cat. No. ES-013-C).
148 μL (135 μg/mL) membranes and 2 μL test compounds were transferred to individual wells of a 96-well polypropylene assay plate and incubated for 15 to 30 minutes at room temperature with agitation. Tritiated radioligand was diluted to a concentration of 14 nM in assay buffer (phosphate buffered saline without Magnesium and Calcium, pH 7.4; GE Healthcare Life Sciences, Cat. No. SH30256.01) and then 50 μL of the solution were transferred to each well of the assay plate. To define total and non-specific binding, wells containing 1% DMSO and 20 μM N-ethylcarboxamidoadenosine (Tocris Bioscience, Cat. No. 1691) respectively, were also included. The wells of the assay plate were incubated at room temperature for 60 minutes with agitation, then filtered using a FilterMate Harvester® (Perkin Elmer) or similar equipment through a UniFilter-96® PEI coated plate (Perkin Elmer Cat. No. 6005274 or 6005277). Filtering was achieved by aspirating the contents of the assay plate for 5 seconds, then washing and aspirating the contents three times with ice-cooled wash buffer (assay buffer supplemented with 0.0025% Brij58) and allowing the vacuum manifold to dry the plate for 30 seconds. The filter plate was incubated for at least 1 hour at 55° C. and allowed to dry. The bottom of the filter plate was then sealed with backing tape. 40 μL Ultima Gold™ (Perkin Elmer, Cat. No. 6013329) was added to each well of the filter plate and the top of the plate was sealed with TopSeal-A PLUS® clear plate seal (Perkin Elmer, Cat. No. 6050185). The plates were then incubated for at least 20 minutes, and then the amount of radioactivity remaining in each well was determined using a TopCount® (Perkin Elmer) scintillation counter. After normalization to total and non-specific binding, the percent effect at each compound concentration was calculated. The plot of percent effect versus the log of compound concentration was analyzed electronically using a 4-parameter logistic fit based on the Levenberg-Marquardt algorithm to generate IC50 values.

In test [2] the target is T2, human A2a adenosine receptor (Homo sapiens, UniProt P29274).
T2 construct: purchased Perkin Elmer RBHA2aM400UA; host or cells: HEK293 or CHO cells (recombinant expression)
In words: A2a binding affinity using radioligand binding, Method (A). The following applies: Method (A): [3H]SCH58261 filtration binding, membranes expressing human A2a.
Source text: as §1
The A2a receptor affinity binding assay measured the amount of binding of a tritiated ligand with high affinity for the A2a adenosine receptor to membranes made from HEK293 or CHO cells recombinantly expressing the human A2a adenosine receptor, in the presence of varying concentrations of a compound of the invention. The data were generated using either filtration binding or a homogenous scintillation proximity assay (SPA).
Method (A): Measurement of A2a Binding Affinity Using Radioligand Binding
148 μL (5 μg/mL) membranes (Perkin Elmer, Cat. No. RBHA2aM400UA) and 2 μL compounds of the invention to be tested (test compound) were transferred to individual wells of a 96-well polypropylene assay plate and incubated for 15 to 30 minutes at room temperature. [^3H] SCH58261 ((7-(2-phenylethyl)-5-amino-2-(2-furyl)-pyrazolo-[4,3-e]-1,2,4-triazolo[1,5-c]pyrimidine)) was diluted in assay buffer (50 mM Tris pH 7.4, 10 mM MgCl2, 0.005% Tween20) to a concentration of 4 nM and 50 μL transferred to each well of the assay plate. To define total and non-specific binding, wells containing 1% DMSO and 1 μM ZM241385 (Tocris Bioscience, Cat. No. 1036) respectively, were also included. The assay plate was incubated at room temperature for 60 minutes with agitation. Using a FilterMate Harvester® (Perkin Elmer), the contents of the assay plate were filtered through a UniFilter-96® PEI coated plate (Perkin Elmer Cat. No. 6005274 or 6005277). Filtering was achieved by aspirating the contents of the assay plate for 5 seconds, then washing and aspirating the contents three times with ice-cooled wash buffer (50 mM Tris-HCl pH 7.4, 150 mM NaCl) and allowing the vacuum manifold to dry the plate for 30 seconds. The filter plate was incubated for at least 1 hour at 55° C. and allowed to dry. The bottom of the filter plate was sealed with backing tape. 40 μL Ultima Gold™ (Perkin Elmer, Cat. No. 6013329) was added to each well of the filter plate and the top of the plate was sealed with TopSeal-A PLUS® clear plate seal (Perkin Elmer, Cat. No. 6050185). The plate was incubated for at least 20 minutes, and then the amount of radioactivity remaining in each well was determined using a TopCount® (Perkin Elmer) scintillation counter. After normalization to total and non-specific binding, the percent effect at each compound concentration was calculated. The plot of percent effect versus the log of compound concentration was analyzed electronically using a 4-parameter logistic fit based on the Levenberg-Marquardt algorithm to generate IC50 values.

T2 sequence (P29274 whole entry): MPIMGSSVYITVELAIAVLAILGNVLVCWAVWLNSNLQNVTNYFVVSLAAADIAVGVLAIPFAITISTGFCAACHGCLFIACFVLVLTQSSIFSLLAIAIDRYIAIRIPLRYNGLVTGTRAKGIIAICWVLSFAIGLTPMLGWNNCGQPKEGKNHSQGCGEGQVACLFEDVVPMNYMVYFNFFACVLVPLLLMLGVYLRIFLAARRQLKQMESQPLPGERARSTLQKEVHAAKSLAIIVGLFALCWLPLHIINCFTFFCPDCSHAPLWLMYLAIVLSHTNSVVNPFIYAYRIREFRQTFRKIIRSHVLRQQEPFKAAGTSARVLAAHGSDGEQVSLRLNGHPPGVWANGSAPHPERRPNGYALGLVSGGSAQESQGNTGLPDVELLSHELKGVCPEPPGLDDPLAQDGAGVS

What is called IC50 is the concentration that inhibits the measured activity by half. Lower therefore signals greater potency in that assay. As to `Cc1c(-c2ncco2)nc(N)n2nc(C3CCN(c4cnn(CC(C)(C)O)c4)C3)nc12` (single isomer, unassigned) [Example 3.15-1, (R or S)-1-(4-(3-(5-amino-8-methyl-7-(oxazol-2-yl)-[1,2,4]triazolo[1,5-c]pyrimidin-2-yl)pyrrolidin-1-yl)-1H-pyrazol-1-yl)-2-methylpropan-2-ol], the IC50 came to 386 nM in test [1] and 42.6 nM in test [2].

With `Cc1c(-c2ncco2)nc(N)n2nc(C3CCCC(C)(O)C3)nc12` (single isomer, unassigned) [Example 8.3-2, (1-R or S,3-R or S)-3-(5-amino-8-methyl-7-(oxazol-2-yl)-[1,2,4]triazolo[1,5-c]pyrimidin-2-yl)-1-methylcyclohexan-1-ol], the IC50 in test [1] came to 64.5 nM; in test [2], 0.9 nM.

In the case of `Cc1c(-c2cccc(F)c2)nc(N)c2nc(C3CCCC(C)(O)C3)nn12` (single isomer, unassigned) [Example 8.10-1, (1R,3S or 1S,3R or 1R,3R or 1S,3S)-1-3-(8-amino-6-(3-fluorophenyl)-5-methyl-[1,2,4]triazolo[1,5-a]pyrazin-2-yl)-1-methylcyclohexan-1-ol], the IC50 came out at 2640 nM in test [1] and 175 nM in test [2].

`Cc1c(-c2ncco2)nc(N)n2nc([C@@H]3CCCN(c4cnn(CC(F)(F)F)c4)C3)nc12` [Example 3.5, (R)-8-methyl-7-(oxazol-2-yl)-2-(1-(1-(2,2,2-trifluoroethyl)-1H-pyrazol-4-yl)piperidin-3-yl)-[1,2,4]triazolo[1,5-c]pyrimidin-5-amine]: the results for the IC50 in test [1] and in test [2] were 34.4 nM and 1.3 nM, respectively.

Turning to `Cc1c(-c2ncco2)nc(N)c2nc(C3CCC(C)(O)C3)nn12` (single isomer, unassigned) [Example 8.7, (1R,3S and 1S,3R) or (1R,3R and 1S,3S)-3-(8-amino-5-methyl-6-(oxazol-2-yl)-[1,2,4]triazolo[1,5-a]pyrazin-2-yl)-1-methylcyclopentan-1-ol], the 50% inhibitory concentration (IC50) in test [1] was 2590 nM; in test [2] it was 143 nM.

Consider `Cc1c(-c2ncco2)nc(N)n2nc([C@@H]3CCCN(c4cnn(CC5(O)CCC5)c4)C3)nc12` [Example 3.8, (R)-1-((4-(3-(5-amino-8-methyl-7-(oxazol-2-yl)-[1,2,4]triazolo[1,5-c]pyrimidin-2-yl)piperidin-1-yl)-1H-pyrazol-1-yl)methyl)cyclobutan-1-ol], for which the results for the IC50 in test [1] and in test [2] were 191 nM and 2.7 nM, respectively.

With `CCn1cc(N2C[C@@H](c3nc4c(C)c(-c5cccc(F)c5)nc(N)n4n3)CC[C@H]2C)cn1` [Example 2.17, 2-((3S,6R)-1-(1-ethyl-1H-pyrazol-4-yl)-6-methylpiperidin-3-yl)-7-(3-fluorophenyl)-8-methyl-[1,2,4]triazolo[1,5-c]pyrimidin-5-amine], the IC50 in test [1] came out at 2150 nM; in test [2], 47.6 nM.

As to `Cc1c(-c2ncco2)nc(N)n2nc(C3CCCC(C)(O)C3)nc12` (single isomer, unassigned) [Example 8.2-1, (1-R or S,3-R or S)-3-(5-amino-8-methyl-7-(oxazol-2-yl)-[1,2,4]triazolo[1,5-c]pyrimidin-2-yl)-1-methylcyclohexan-1-ol], the IC50 is 5550 nM in test [1] and 30.6 nM in test [2].

As to `Cc1c(-c2ncco2)nc(N)n2nc([C@H]3C[C@@H](O)C3)nc12` [Example 2.8, (1s,3s)-3-(5-amino-8-methyl-7-(oxazol-2-yl)-[1,2,4]triazolo[1,5-c]pyrimidin-2-yl)cyclobutan-1-ol], the IC50 in test [1] turned out to be 250 nM; in test [2] it was 72.9 nM.

With `CCn1cc(N2C[C@H](c3nc4c(C)c(-c5ncco5)nc(N)n4n3)CC[C@@H]2C)cn1` [Example 2.14, 2-((3R,6S)-1-(1-ethyl-1H-pyrazol-4-yl)-6-methylpiperidin-3-yl)-8-methyl-7-(oxazol-2-yl)-[1,2,4]triazolo[1,5-c]pyrimidin-5-amine], the IC50 in test [1] is 17.6 nM; in test [2] it was 1.2 nM.
